{"source": "patent US4713453A", "about": "“Oxabicycloheptane derivatives” (Suntori Limited, priority 1986, dated 1987)", "key": {"Male ddY mice [1]": {"system": "Male ddY mice", "assay": "Anti-cerebroischemic effect (brain protection after ischemia by decapitation): gasping time", "assay_type": "in vivo, mouse (male ddY)", "conditions": "intraperitoneal, 30 min before decapitation", "description": "1. Anti-cerebroischemic effect (i.e., brain protection after ischemia by decapitation)\nMale ddY mice weighing 22-30 g were used in groups each consisting of 6 animals. Test compounds were administered intraperitoneally to the mice which were decapitated 30 minutes after the administration. The gasping time, or the duration of time between the onset of panting after decapitation and its cessation, was measured, and this was compared with the gasping time for a control group which were given only a liquid vehicle."}, "Male ddY mice [2]": {"system": "Male ddY mice", "assay": "Anti-hypoxia effect (brain protection in low-oxygen state after evacuation): survival time", "assay_type": "in vivo, mouse (male ddY)", "conditions": "intraperitoneal, 180 mmHg", "description": "2. Anti-hypoxia effect (i.e., […] protection in low-oxygen state after evacuation)\nMale ddY m8mice weighing 22-30 g were used in groups each consisting of 7-10 animals. The mice were placed in a desiccator (capacity: ca. 1,000 ml) which was evacuated with a vacuum pump to an internal pressure of 180 mmHg after intraperitoneal administration of test compounds. The survival time, or the duration of time between the start of evacuation and the cessation of breathing, was measured, and this was compared with the value for a vehicle group. Any survival time longer than a period of 15 minutes after application of a hypoxia load was counted as 15 minutes."}, "vertebral artery": {"system": "vertebral artery", "assay": "Effect on blood flow in the vertebral artery, blood pressure and heart rate in anesthetized dogs", "assay_type": "in vivo, dog (mongrel)", "conditions": "femoral vein", "description": "4. Effect on blood flow in the vertebral artery, blood pressure and heart rate in anesthetized dogs\nMongrel dogs of either sex, weighing 6.8-9.4 kg, were used. The animals were anesthetized with an intravenous injection, at first, of 30 mg/kg of sodium thiopental and thereafter, of a combination of urethane 400 mg/kg and α-chloralose 60 mg/kg. Under artificial ventilation (20 ml/kg/stroke, 20 strokes/min), blood flow in the vertebral artery and blood pressure were measured with the aid of an extracorporeal electromagnetic flow probe placed on the artery and a pressure transducer, respectively. Vertebral vascular resistance was recorded with an electronic divider and heart rate was measured with a heart rate counter triggered by blood pressure pulses. All of these parameters were recorded on a polygraph continuously. When these parameters became stable, test compounds were injected into the femoral vein."}, "[3]": {"system": "rabbit platelet rich plasma", "assay": "Effect on in vitro platelet aggregation", "assay_type": "cell-based, rabbit (male Japanese white)", "conditions": "for IC50: Oryctolagus cuniculus, Platelet", "description": "5. Effect on in vitro platelet aggregation Arterial blood was drawn from the ear artery of male Japanese white rabbits. Platelet rich plasma (PRP) was prepared by centrifugation of 9 ml of blood mixed with 1 ml of 3.8% sodium citrate as anticoagulant. Platelet aggregation was measured optically according to Born's method. ADP (10 μM), collagen (37.5 μg/ml), platelet activating factor (PAF, 0.11 nM) and calcium ionophore A 23187 (1 μg/ml) were used as platelet aggregators. Test compounds were added 1 minute prior to the addition of aggregating agents."}, "[4]": {"system": "scopolamine amnesia mouse", "assay": "Anti-amnesia effect (scopolamine-induced retrograde amnesia), step-through passive avoidance", "assay_type": "in vivo, mouse (male ddY)", "conditions": "ip, 24 h, significant prolongation of step-through latency, intraperitoneal, scopolamine 0.5 mg/kg s.c., read-out: Minimum effective amount", "description": "6a. Anti-amnesia effect (i.e., capability of preventing scopolamine-inducedretrograde amnesia)\nFive-week old male ddY weighing 25-30 g were used in groups each consisting of 10 animals. Memory retention deficit induced by scopolamine was evaluated by two-compartment step-through passive avoidance task. […] The floor of the dark compartment was provided with a current-conducting grid.\nThe experimental method was as follows. A scopolamine amnesia mouse that had been given subcutaneous injection of 0.5 mg/kg of an aqueous solution of scopolamine borate 20 minutes before was placed in the light compartment and when its forefeet touched the grid floor of the dark compartment, a current of 0.6 mA was applied to give a foot shock to the mouse (acquired conation). Immediately thereafter, a selected test compound or a control (physiological saline solution) was administered intraperitoneally. Twenty-four hours later, the mouse was replaced in the light compartment and the step-through latency, or the time required for the mouse to move to the dark compartment, was measured for a period of up to 300 seconds (test conation). The minimum effective amount of the test compound that provided a significant prolongation of the step-through latency over the control was determined."}, "[5]": {"system": "ECS-induced amnesia in mice", "assay": "Effect on electroconvulsive shock (ECS)-induced amnesia in mice, step-through passive avoidance", "assay_type": "in vivo, mouse (male ddY)", "conditions": "6.25 and 12.5 mg/kg, intraperitoneal, 30 minutes before retention test", "description": "(§1) 6b. Effects on electroconvulsive shock (ECS)- and cycloheximide-induced amnesia in mice\n(§2) Male, ddY strain mice, weighing 25 to 35 g, were used. Memory retention deficit induced by ECS and cycloheximide was evaluated by two-compartment step-through passive avoidance task using a light-dark apparatus. Passive avoidance training test began by placing the mouse into the light compartment. When the mouse moved completely into the dark compartment, a shock of 0.6 mA was applied from the grid floor. Amnesia was induced in the following two ways. In the first one, a single ECS (current 50 mA, frequency 50 Hz, pulse width 1 msec, shock duration 1 msec) was applied via a pair of electrodes attached to the head immediately after receiving the foot shock, and the mouse was returned to its home cage. Test compounds were administered intraperitoneally 30 minutes before a retention test. In the second one, cycloheximide (40 mg/kg) was administered subcutaneously 30 minutes before the training and the compounds in question were administered intraperitoneally immediately after the training. A retention test was given 24 hours later. The test procedures proceeded in a manner similar to the training one, and time to entry into the dark compartment was measured for 300 seconds."}, "[6]": {"system": "cycloheximide-induced amnesia in mice", "assay": "Effect on cycloheximide-induced amnesia in mice, step-through passive avoidance", "assay_type": "in vivo, mouse (male ddY)", "conditions": "6.25 and 50 mg/kg, intraperitoneal, immediately after training; cycloheximide 40 mg/kg s.c.", "description": "as §1, §2"}, "Male ICR mice": {"system": "Male ICR mice", "assay": "Anti-depression effect (forced swimming, revolutions of water wheel)", "assay_type": "in vivo, mouse (male ICR)", "conditions": "50 mg/kg, intraperitoneal", "source_text": "Male ICR mice weighing 25-30 g were used in groups each consisting of 6 or 7 animals. […] First, the mouse was subjected to force swimming for two days on a 15-minutes-a-day basis; starting on the third day, the mouse that had received intraperitoneal injection of a test compound one hour before was subjected to forced swimming for 3 days on a 15-minutes-a-day basis."}, "[7]": {"system": "rabbit platelet rich plasma", "assay": "Effect on in vitro platelet aggregation", "assay_type": "cell-based, rabbit (male Japanese white)", "conditions": "Oryctolagus cuniculus, aggregator AA, read-out: Anti-platelet aggregation IC50, AA"}}, "note": "Entries after “also recorded” stand apart in the source; their conditions may differ. Where two headings read alike, the source gives them in different places."}
{"smiles": "CN(C)CCCON=C1c2ccccc2OC2(c3ccccc3)CC12", "note": "(stereo not drawn) [Example 2, 3,4-Benzo-5-(3-dimethylaminopropyl)oxyimino-1-phenyl-2-oxabicyclo[4.1.0]heptane]", "values": [{"measurement": "prolongation of gasping time", "setting": "Male ddY mice [1]; 12.5 mg/kg", "value": "significant prolongation of the gasping time"}, {"measurement": "prolongation of gasping time", "setting": "Male ddY mice [1]; 25 mg/kg", "value": "significantly prolonging the gasping time"}, {"measurement": "prolongation of survival time", "setting": "Male ddY mice [2]; 6.25 mg/kg or smaller", "value": "significant prolongation of the survival time"}, {"measurement": "prolongation of survival time", "setting": "Male ddY mice [2]; 12.5 mg/kg", "value": "significantly prolonging the survival time"}, {"measurement": "blood pressure", "setting": "vertebral artery; 3.0 mg/kg", "value": "small decrease"}, {"measurement": "heart rate", "setting": "vertebral artery; 3.0 mg/kg", "value": "increase"}, {"measurement": "vertebral vascular resistance", "setting": "vertebral artery; 3.0 mg/kg", "value": "further decrease"}, {"measurement": "blood pressure", "setting": "vertebral artery; 0.3 and 1.0 mg/kg", "value": "almost no change"}, {"measurement": "heart rate", "setting": "vertebral artery; 0.3 and 1.0 mg/kg", "value": "almost no change"}, {"measurement": "vertebral vascular resistance", "setting": "vertebral artery; 0.3 and 1.0 mg/kg", "value": "dose-dependent decreases"}, {"measurement": "IC50", "setting": "[3]; aggregator ADP (10 μM), read-out: Anti-platelet aggregation IC50, ADP", "value": 34.5, "unit": "µg/mL"}, {"measurement": "IC50", "setting": "[3]; aggregator PAF (0.11 nM), read-out: Anti-platelet aggregation IC50, PAF", "value": 20, "unit": "µg/mL"}, {"measurement": "IC50", "setting": "[3]; aggregator calcium ionophore A 23187 (1 μg/ml), read-out: Anti-platelet aggregation IC50, A 23187", "value": 69, "unit": "µg/mL"}, {"measurement": "IC50", "setting": "[3]; aggregator collagen (37.5 μg/ml), read-out: Anti-platelet aggregation IC50, Collagen", "value": 4.1, "unit": "µg/mL"}, {"measurement": "platelet aggregation", "setting": "[3]; all the aggregators used, listed as Compound No. 2", "value": "decreases in platelet aggregation induced by all the aggregators used; also recorded: nonspecific inhibitory actions on in vitro platelet aggregation"}, {"measurement": "minimal effective dose", "setting": "[4]", "value": 3.2, "unit": "mg/kg"}, {"measurement": "prevention of ECS-induced shortening of step-through latency", "setting": "[5]", "value": "significantly prevented the ECS-induced shortening of step-through latency"}, {"measurement": "prolongation of step-through latency shortened by cycloheximide", "setting": "[6]", "value": "significantly prolonged the step-through latency"}, {"measurement": "anti-depression effect", "setting": "Male ICR mice", "value": "anti-depression effect"}, {"measurement": "rotation of the water wheel relative to control group", "setting": "Male ICR mice; one hour before forced swimming", "value": 1.8, "unit": "times"}, {"measurement": "IC50", "setting": "[7]", "value": 54, "unit": "µg/mL"}]}
